The test system of one series is HCT 116 cells. The settings on record: MTT assay. The method, then:
(§1) Vitilevuamide prepared according to the procedure of Example 1 or Example 2 was tested against a panel of human tumor cell lines: (a) a colon cancer cell line, HCT 116 (obtained from ATCC), M. Brattain, 41 Cancer Res. 1751 (1986); (b) an adenocarcinoma cell line, A549, D. J. Giard, 51 J. Nat'l Cancer Inst. 1417 (1973); (c) a malignant melanoma cell line, SK-MEL-5, H. F Oteggen, 41 J. Nat'l Cancer Inst. 827 (1968); and (d) a kidney carcinoma cell line, A498, S. Aaronson, 51 J. Nat'l Cancer Inst. 1417 (1973). Cells were cultured according to the procedure of M. C. Alley et al., 48 Cancer Res. 589 (1988), hereby incorporated by reference.
(§2) Screening was performed in a 96-well microtiter plate by the standard 3-[4,5-dimethylthiazol-2-yl]-[…] bromide; thiazolyl blue (MTT) cell inhibition assay adopted for anticancer drug screening at NIH. J. Carmichael et al., 47 Cancer Res. 936 (1987), hereby incorporated by reference. Positive controls were run simultaneously.

For the next series, the system named is SK-MEL-5 cells. The conditions noted are these: MTT assay. Here is the method:
as §1, §2

For a further series, the system named is A549 cells. The settings on record: MTT assay. The method, then: as §1, §2
In another series the test system is A498 cells. The conditions noted are these: MTT assay. The method, then: as §1, §2
Another series deals with C6 rat glioma cells. The series can be described thus: Tubulin inhibition assay (db-cAMP rounding, MTT readout). Type of series: cell-based. The conditions noted are these: 4 h treatment then 1 mM db-cAMP, colchicine 25 μg/mL positive control. The method, then: C6 rat glioma cells (ATCC CCL107) were seeded into the wells of a microtiter plate and then incubated for 1 day. The cells were then treated with a range of vitilevuamide concentrations, normally 5 orders of magnitude, and incubated for 4 additional hours. The cells were then treated for 1 hour with 1 mM dibuteryl-cAMP (db-cAMP), which causes the C6 cells to assume a spherical morphology ("rounding") within 60 minutes due to polymerization of tubulin. Cells that are exposed to tubulin-active compounds, on the other hand, display a different morphological change--flattening and adherence to the substrate. All of the wells were then jet aspirated, and the wells were resupplied with fresh medium containing MTT. The glioma cells metabolize MTT to a dark formazan dye. P. R. Twentyman & M. Luscombe, 56 Br. J. Cancer 279 (1987); F. Denizot & R. Lang, 89 J. Immunol. Methods 271 (1986). Following 4 hours of incubation, absorbance was measured at 450 nm. Colchicine (25 μg/mL) was used as the positive control.

Another series deals with P388 tumor cells. Put plainly: In vivo P388 tumor life span test in CDF1 mice. The settings on record: days 1, 5, 9, CDF1 mice with P388. Here is the method: Vitilevuamide was also screened for in vivo activity by injecting CDF1 mice intraperitoneally on day 0 with 1×10^6 P388 tumor cells. Five animals were randomly assigned to a group. On days 1, 5, and 9 after tumor implantation, these mice were treated intraperitoneally with either a placebo or the drug. Animals were checked twice daily, and the day of death of each mouse was recorded. A positive drug response is defined as a greater than 25% increase in the mean life span (% ILS) relative to the placebo control.

In the case of `C=C1NC(=O)[C@H]([C@@H](C)CC)NC(=O)C2CSCC(NC(=O)CCC(=O)O)C(=O)N[C@H](Cc3ccccc3)C(=O)N[C@H](C)C(=O)NC(CC(C)CC)C(=O)N[C@@H](C(=O)N[C@H](Cc3ccccc3)C(=O)N3CCC[C@H]3C(=O)N2)[C@@H](C)OC(=O)[C@H](CO)NC(=O)C(C(O)COC)N(C)C(=O)[C@@H](C(C)C)NC(=O)C(CC(C)CC)NC1=O` (stereo partly drawn) [vitilevuamide], the “50% inhibitory concentration (IC50)” value in the series on HCT 116 cells was found to be 0.01 µg/mL; in the series on SK-MEL-5 cells it was 0.5 µg/mL; with A549 cells, 0.2 µg/mL; in the series with A498 cells it was 5 µg/mL. For the same compound, in the series on C6 rat glioma cells, the “concentration showing the same effect as colchicine” value was 4 µg/mL. For the same compound, the “% ILS (increase in mean life span relative to placebo)” value in the series on P388 tumor cells (0.006 mg/kg/dose i.p.) was 8%; with P388 tumor cells (0.012 mg/kg/dose i.p.), 20%; in the series on P388 tumor cells (0.03 mg/kg/dose i.p.) it was 70%; with P388 tumor cells (0.06 mg/kg/dose i.p.), -13%; in the series with P388 tumor cells (0.13 mg/kg/dose i.p.), -45%. Further, the “toxicity remark at dose” value with P388 tumor cells (0.06 mg/kg/dose i.p.) and with P388 tumor cells (0.13 mg/kg/dose i.p.) was “toxic” throughout.

Source of the values: patent US5830996A, “Cyclic peptide antitumor agent from an ascidian” (University of Utah Research Foundation, priority 1996, dated 1998).
